The values below come from ChEMBL document CHEMBL4665541, “Search for new therapeutic options for the uncommon pathogen Mycobacterium chimaera: an open drug discovery approach” (Lancet Microbe, 2021).

What all share (type): functional, organism-based
Holding throughout (set-up): conc 20 uM

The test system of assay [1] is Mycobacterium intracellulare subsp. chimaera. As to the kind of experiment: (§1) Inhibition of mycobacterial growth using the resazurin microtitre cell viability assay (REMA), compounds at final concentration of 20 µM (2% v/v DMSO). Hits were classed as compounds that inhibited bacterial growth by 70% or more compared to drug-free controls. The following applies: NCTC13781.

Assay [2] has as its system Mycobacterium tuberculosis. The description is as §1. The following applies: H37Rv.
Assay [3] has as its system Mycobacteroides abscessus. The description is as §1. The following applies: ATCC19977.

Consider MMV000011, for which the Survival in assay [1] was 10.1%; in assay [2] it was 22.4%; in assay [3], 118%.
In the case of MMV000016, the Survival in assay [1] was 110%; in assay [2], 127%; in assay [3], 99.9%.
The corresponding values for MMV000023 are 92.8%, 84.7% and 109%.
The corresponding values for MMV000062 are 85.2%, 18.8% and 109%.
The corresponding values for MMV000063 are 99.8%, 90.6% and 120%.
As for MMV000858, the Survival is 118% in assay [1], 105% in assay [2] and 113% in assay [3].
The matching figures for MMV000907: 98.3%, 97.1% and 111%.
The matching figures for MMV001059: 106%, 89.4% and 105%.
On to MMV001493, for which the values for the Survival in assay [1], in assay [2] and in assay [3] were 106%, 93.6% and 128%, respectively.
On to MMV001499, for which the Survival in assay [1] is 101%; in assay [2], 93.2%; in assay [3], 125%.
On to MMV001561, for which the Survival in assay [1] is 103%; in assay [2], 91.3%; in assay [3] it was 103%.
As to MMV001625, the figures for the Survival in assay [1], in assay [2] and in assay [3] were 101%, 90.5% and 121%, respectively.
For MMV002529, the Survival was 99.8% in assay [1], 92% in assay [2] and 120% in assay [3].
MMV002816: the Survival is 102% in assay [1], 86.4% in assay [2] and 112% in assay [3].
With MMV002817, the Survival is 100% in assay [1], 90.6% in assay [2] and 118% in assay [3].
The matching figures for MMV003152: 96.7%, 92.7% and 111%.
The matching figures for MMV004168: 99.7%, 90.2% and 114%.
As to MMV006239, the Survival in assay [1] was 94.8%; in assay [2] it was 86.9%; in assay [3] it was 112%.
For the substance MMV006372, the Survival in assay [1] was 98.4%; in assay [2], 101%; in assay [3], 111%.
The corresponding values for MMV006741 are 96.4%, 85.7% and 111%.
Regarding MMV006833, the Survival in assay [1] was 115%; in assay [2], 93.7%; in assay [3], 126%.
The corresponding values for MMV006901 are 120%, 86.8% and 102%.
The matching figures for MMV007133: 95.2%, 98.7% and 95%.
The corresponding values for MMV007471 are 101%, 89.1% and 119%.
Regarding MMV007625, the Survival is 104% in assay [1], 90.4% in assay [2] and 123% in assay [3].
The corresponding values for MMV007638 are 113%, 100% and 123%.
The corresponding values for MMV007803 are 105%, 97.5% and 101%.
With MMV007920, the Survival in assay [1] was 99.7%; in assay [2] it was 98%; in assay [3] it was 102%.
In the case of MMV008439, the Survival in assay [1] was 99.8%; in assay [2] it was 106%; in assay [3] it was 112%.
For MMV009054, the Survival in assay [1] was 100%; in assay [2] it was 98.7%; in assay [3], 105%.
The corresponding values for MMV009135 are 104%, 93.6% and 101%.
